Data set [1] deals with T1, butyrylcholinesterase (BuChE) (Homo sapiens, UniProt P06276). Conditions: for Butyrylcholinesterase (BuChE) Inhibition %Inhibition: given for compounds with <50% inhibition, test concentration not given.
The subject of data set [2] is Vero cell lines (normal kidney epithelial cells). In words: SRB cytotoxicity assay against Vero cell line. Conditions: initial screening. The format is cell-based. The procedure: To investigate the cytotoxicity of potent compounds (8a, 8c, 8g, and 9i), an SRB assay was performed against Vero cell lines (normal kidney epithelial cells). The total protein generated when cells were treated with putative anticancer drugs was assessed using a very precise […] technique. […] It can readily connect with cells that have been fixed with trichloroacetic acid (TCA). A bright color is produced by the SRB dye when it binds solely to intracellular proteins, and the color is proportional to the quantity of protein present in the cell.

In data set [3] the target is T1, butyrylcholinesterase (BuChE). In words: biochemical.

Here are results for 23 compounds from paper PMC10004187 (Molecules, 2023).

T1 sequence (P06276 29-602): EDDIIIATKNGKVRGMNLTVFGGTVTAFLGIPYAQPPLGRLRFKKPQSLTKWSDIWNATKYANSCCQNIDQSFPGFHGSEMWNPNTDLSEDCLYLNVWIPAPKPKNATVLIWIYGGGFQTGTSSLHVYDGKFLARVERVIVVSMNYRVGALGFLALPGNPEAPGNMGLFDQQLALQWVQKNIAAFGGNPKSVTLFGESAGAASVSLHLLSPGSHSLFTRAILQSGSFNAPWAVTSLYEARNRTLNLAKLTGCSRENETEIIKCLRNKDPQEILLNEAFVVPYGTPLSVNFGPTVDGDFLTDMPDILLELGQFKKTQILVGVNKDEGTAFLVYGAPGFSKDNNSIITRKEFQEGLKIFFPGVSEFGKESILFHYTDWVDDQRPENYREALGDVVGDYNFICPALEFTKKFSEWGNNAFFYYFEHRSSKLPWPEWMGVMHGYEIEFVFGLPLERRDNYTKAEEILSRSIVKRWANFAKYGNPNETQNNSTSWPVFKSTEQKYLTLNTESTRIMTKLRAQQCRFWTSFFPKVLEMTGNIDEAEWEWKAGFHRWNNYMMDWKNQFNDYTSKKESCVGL

`Cc1ccc2nc(N3CCCCC3)c(C=NNC(=O)c3ccc(Cl)cc3Cl)cc2c1` [Compound 8i, 2,4-Dichloro-N′-((6-methyl-2-(piperidin-1-yl)quinolin-3-yl)methylene)benzohydrazide]: the “Butyrylcholinesterase (BuChE) Inhibition %Inhibition” value in data set [1] is recorded as 39%.

Take `Cc1cccc2cc(C=NNC(=O)c3ccccc3)c(N3CCCCC3)nc12` [Compound 9a, N′-((8-methyl-2-(piperidin-1-yl)quinolin-3-yl)methylene)benzohydrazide]: in data set [1], the “Butyrylcholinesterase (BuChE) Inhibition %Inhibition” value was 32%.

For `Cc1ccc2nc(N3CCCCC3)c(C=NNC(=O)c3ccc([N+](=O)[O-])cc3)cc2c1` [Compound 8c, N′-((6-methyl-2-(piperidin-1-yl)quinolin-3-yl)methylene)-4-nitrobenzohydrazide], the “inhibition of Vero cells (toxicity towards normal kidney cells)” value (“inhibition of Vero cells” below) in data set [2] is “less than 22%”. In data set [3], the IC50 (commonly the concentration that gives 50% inhibition) was found to be 1.74 ± 0.03 µM.

With `Cc1cccc2cc(C=NNC(=O)c3ccc([N+](=O)[O-])cc3)c(N3CCCCC3)nc12` [Compound 9c, N′-((8-methyl-2-(piperidin-1-yl)quinolin-3-yl)methylene)-4-nitrobenzohydrazide], in data set [1], the “Butyrylcholinesterase (BuChE) Inhibition %Inhibition” value was determined as 32%.

In the case of `Cc1ccc2nc(N3CCCCC3)c(C=NNC(=O)c3ccc(Cl)cc3)cc2c1` [Compound 8h, 4-Chloro-N′-((6-methyl-2-(piperidin-1-yl)quinolin-3-yl)methylene)benzohydrazide], the “Butyrylcholinesterase (BuChE) Inhibition %Inhibition” value in data set [1] came out at 34%.

`COc1ccccc1C(=O)NN=Cc1cc2cccc(C)c2nc1N1CCCCC1` [Compound 9h, 2-Methoxy-N′-((8-methyl-2-(piperidin-1-yl)quinolin-3-yl)methylene)benzohydrazide]: the “Butyrylcholinesterase (BuChE) Inhibition %Inhibition” value in data set [1] is recorded as 33%.

Regarding `Cc1cccc2cc(C=NNC(=O)c3cccc(Cl)c3)c(N3CCCCC3)nc12` [Compound 9e, 3-Chloro-N′-((8-methyl-2-(piperidin-1-yl)quinolin-3-yl)methylene)benzohydrazide], the “Butyrylcholinesterase (BuChE) Inhibition %Inhibition” value in data set [1] came to 40%.

For the compound `COc1cccc(C(=O)NN=Cc2cc3cccc(C)c3nc2N2CCCCC2)c1` [Compound 9i, 3-Methoxy-N′-((8-methyl-2-(piperidin-1-yl)quinolin-3-yl)methylene)benzohydrazide], the “inhibition of Vero cells” value in data set [2] is recorded as “less than 22%”. Moreover, the “Butyrylcholinesterase (BuChE) Inhibition %Inhibition” value in data set [1] is 27%.

On to `Cc1ccc2nc(N3CCCCC3)c(C=NNC(=O)c3ccccc3N)cc2c1` [Compound 8d, 2-Amino-N′-((6-methyl-2-(piperidin-1-yl)quinolin-3-yl)methylene)benzohydrazide], for which the “Butyrylcholinesterase (BuChE) Inhibition %Inhibition” value in data set [1] is recorded as 21%.

For `COc1ccc(C(=O)NN=Cc2cc3cccc(C)c3nc2N2CCCCC2)cc1` [Compound 9j, 4-Methoxy-N′-((8-methyl-2-(piperidin-1-yl)quinolin-3-yl)methylene)benzohydrazide], in data set [1], the “Butyrylcholinesterase (BuChE) Inhibition %Inhibition” value was found to be 38%.

In the case of `Cc1cccc2cc(C=NNC(=O)c3ccc(Cl)cc3Cl)c(N3CCCCC3)nc12` [Compound 9g, 2,4-Dichloro-N′-((8-methyl-2-(piperidin-1-yl)quinolin-3-yl)methylene)benzohydrazide], the “Butyrylcholinesterase (BuChE) Inhibition %Inhibition” value in data set [1] was 32%.

Turning to `Cc1ccc2nc(N3CCCCC3)c(C=NNC(=O)c3cccc([N+](=O)[O-])c3)cc2c1` [Compound 8b, N′-((6-methyl-2-(piperidin-1-yl)quinolin-3-yl)methylene)-3-nitrobenzohydrazide], the “BuChE inhibition ability, fold reduction relative to 8g” value in data set [1] (Cl exchanged for NO2, vs lead 8g) is on record as 3 folds. This compound registered an IC50 in data set [3] of 4.71 ± 0.45 µM.

As for `Cc1cccc2cc(C=NNC(=O)c3ccc(Cl)cc3)c(N3CCCCC3)nc12` [Compound 9f, 4-Chloro-N′-((8-methyl-2-(piperidin-1-yl)quinolin-3-yl)methylene)benzohydrazide], the “Butyrylcholinesterase (BuChE) Inhibition %Inhibition” value in data set [1] is given as 36%.

Regarding `Cc1ccc2nc(N3CCCCC3)c(C=NNC(=O)c3ccccc3)cc2c1` [Compound 8a, N′-((6-methyl-2-(piperidin-1-yl)quinolin-3-yl)methylene)benzohydrazide], the “inhibition of Vero cells” value in data set [2] is given as “less than 22%”. In addition, in data set [3], the IC50 came to 4.64 ± 0.43 µM.

As to `Cc1cccc2cc(C=NNC(=O)c3ccccc3Cl)c(N3CCCCC3)nc12` [Compound 9d, 2-Chloro-N′-((8-methyl-2-(piperidin-1-yl)quinolin-3-yl)methylene)benzohydrazide], in data set [1], the “Butyrylcholinesterase (BuChE) Inhibition %Inhibition” value worked out at 38%.

With `COc1cccc(C(=O)NN=Cc2cc3cc(C)ccc3nc2N2CCCCC2)c1` [Compound 8k, 3-Methoxy-N′-((6-methyl-2-(piperidin-1-yl)quinolin-3-yl)methylene)benzohydrazide], the “Butyrylcholinesterase (BuChE) Inhibition %Inhibition” value in data set [1] stood at 28%.

In the case of `Cc1cccc2cc(C=NNC(=O)c3cccc([N+](=O)[O-])c3)c(N3CCCCC3)nc12` [Compound 9b, N′-((8-methyl-2-(piperidin-1-yl)quinolin-3-yl)methylene)-3-nitrobenzohydrazide], the “Butyrylcholinesterase (BuChE) Inhibition %Inhibition” value in data set [1] amounted to 27%.

As for `COc1ccccc1C(=O)NN=Cc1cc2cc(C)ccc2nc1N1CCCCC1` [Compound 8j, 2-Methoxy-N′-((6-methyl-2-(piperidin-1-yl)quinolin-3-yl)methylene)benzohydrazide], the “Butyrylcholinesterase (BuChE) Inhibition %Inhibition” value in data set [1] worked out at 30%.

As to `Cc1ccc2nc(N3CCCCC3)c(C=NNC(=O)c3ccccc3Cl)cc2c1` [Compound 8f, 2-Chloro-N′-((6-methyl-2-(piperidin-1-yl)quinolin-3-yl)methylene)benzohydrazide], the “Butyrylcholinesterase (BuChE) Inhibition %Inhibition” value in data set [1] came to 15%.

On to `COc1ccc(C(=O)NN=Cc2cc3cc(C)ccc3nc2N2CCCCC2)cc1` [Compound 8l, 4-Methoxy-N′-((6-methyl-2-(piperidin-1-yl)quinolin-3-yl)methylene)benzohydrazide], for which the “Butyrylcholinesterase (BuChE) Inhibition %Inhibition” value in data set [1] is recorded as 15%.

As for `Cc1ccc2nc(N3CCCCC3)c(C=NNC(=O)c3cccc(Cl)c3)cc2c1` [Compound 8g, 3-Chloro-N′-((6-methyl-2-(piperidin-1-yl)quinolin-3-yl)methylene)benzohydrazide], the “inhibition of Vero cells” value in data set [2] is given as “less than 22%”. Besides, the IC50 in data set [3] came out at 1.31 ± 0.05 µM.

Turning to `Cc1ccc2nc(N3CCCCC3)c(C=NNC(=O)c3ccccc3O)cc2c1` [Compound 8m, 2-Hydroxy-N′-((6-methyl-2-(piperidin-1-yl)quinolin-3-yl)methylene)benzohydrazide], the “Butyrylcholinesterase (BuChE) Inhibition %Inhibition” value in data set [1] is 13%.

Turning to `Cc1ccc2nc(N3CCCCC3)c(C=NNC(=O)c3ccc(N)cc3)cc2c1` [Compound 8e, 4-Amino-N′-((6-methyl-2-(piperidin-1-yl)quinolin-3-yl)methylene)benzohydrazide], the “Butyrylcholinesterase (BuChE) Inhibition %Inhibition” value in data set [1] is recorded as 23%.
